Reference: patent publication US9365583B2, “Substituted pyrazoles and uses thereof” (Genentech, Inc., priority 2013, dated 2016)

What follows are compounds tested against T1, N-terminally GST-tagged DLK (catalytic domain amino acid 1-520) (Homo sapiens, UniProt Q12852) (assay: DLK TR-FRET inhibition assay). Conditions: 5 nM GST-DLK, 40 nM HIS-MKK4 K131M substrate, 30 μM ATP, 60 minutes at ambient temperature.
T1 construct: N-terminally GST-tagged DLK (catalytic domain amino acid 1-520); purchased Carna Bioscience
T1 sequence (Q12852 1-520): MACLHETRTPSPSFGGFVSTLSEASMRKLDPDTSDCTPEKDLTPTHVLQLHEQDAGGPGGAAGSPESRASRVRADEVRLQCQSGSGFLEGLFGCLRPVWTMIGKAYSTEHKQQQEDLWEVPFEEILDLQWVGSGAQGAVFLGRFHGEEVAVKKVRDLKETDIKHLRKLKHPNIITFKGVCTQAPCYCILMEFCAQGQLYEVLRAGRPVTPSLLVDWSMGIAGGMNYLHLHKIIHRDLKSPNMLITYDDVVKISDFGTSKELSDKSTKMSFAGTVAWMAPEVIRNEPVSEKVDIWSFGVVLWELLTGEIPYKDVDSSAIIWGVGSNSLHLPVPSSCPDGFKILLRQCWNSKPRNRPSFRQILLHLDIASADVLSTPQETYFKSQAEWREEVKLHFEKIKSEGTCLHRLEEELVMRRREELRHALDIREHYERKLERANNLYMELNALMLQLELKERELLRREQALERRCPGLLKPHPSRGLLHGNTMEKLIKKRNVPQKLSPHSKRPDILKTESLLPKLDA
Type: biochemical
Protocol: DLK TR-FRET inhibition assay: DLK kinase reactions (20 μL) containing 5 nM N-terminally GST-tagged DLK (catalytic domain amino acid 1-520) (Carna Bioscience), 40 nM N-terminally HIS-tagged MKK4 K131M substrate, and 30 μM ATP in kinase reaction buffer (50 mM HEPES, pH 7.5, 0.01% Triton X-100, 0.01% Bovine γ-Globulins, 2 mM DTT, 10 mM MgCl2 and 1 mM EGTA), and testing compound 1:3 serial diluted starting at 20 uM were incubated at ambient temperature for 60 minutes in 384 well OptiPlate (Perkin Elmer). To quench kinase reactions and detect phosphorylated MKK4, 15 μL of TR-FRET antibody mixture containing 2 nM anti-phosphorylated MKK4 labeled with Europium cryptate (Cisbio) and 23 nM anti-HIS labeled with D2 (Cisbio) in detection buffer (25 mM Tris pH 7.5, 100 mM NaCl, 100 mM EDTA, 0.01% Tween-20, and 200 mM KF) was added to the reaction mixture. The detection mixture was incubated for 3 hours at ambient temperature and the TR-FRET was detected with an EnVision multilabel plate reader (Perkin-Elmer) using the LANCE/DELFIA Dual Enh label from Perkin-Elmer (excitation filter: UV2 (TRF) 320 and emission filters: APC 665 and Europium 615).
For `CC(C)n1nc(-c2cnc(N)c(C(F)(F)F)c2)cc1[C@H]1[C@@H]2C[C@@H](n3cccn3)C[C@@H]21` [compound 110, 5-(5-((1R,3s,5S,6r)-3-(1H-pyrazol-1-yl)bicyclo[3.1.0]hexan-6-yl)-1-isopropyl-1H-pyrazol-3-yl)-3-(trifluoromethyl)pyridin-2-amine], the Ki was 3.89 nM. Compound `CC(C)n1nc(-c2cnc(N)c(OC(F)(F)F)c2)cc1[C@H]1[C@@H]2C[C@H](N3CCCOCC3)C[C@@H]21` [compound 101, 5-(5-((1R,3r,5S,6r)-3-(1,4-oxazepan-4-yl)bicyclo[3.1.0]hexan-6-yl)-1-isopropyl-1H-pyrazol-3-yl)-3-(trifluoromethoxy)pyridin-2-amine] has a Ki of 0.44 nM. `CC(C)N1CCN([C@H]2C[C@@H]3[C@H](C2)[C@H]3c2cc(-c3cnc(N)c(OC(F)F)c3)nn2C(C)C)CC1` [compound 177, 3-(difluoromethoxy)-5-(1-isopropyl-5-((1R,3r,5S,6r)-3-(4-isopropyl-piperazin-1-yl)bicyclo[3.1.0]hexan-6-yl)-1H-pyrazol-3-yl) pyridin-2-amine] showed a Ki of 1.1 nM. `COC1CN([C@H]2C[C@@H]3[C@H](C2)[C@H]3c2cc(-c3cnc(N)c(OC(F)F)c3)nn2CC2CC2)C1` [compound 154, 5-(1-(cyclopropylmethyl)-5-((1R,3r,5S,6r)-3-(3-methoxyazetidin-1-yl)bicyclo[3.1.0]hexan-6-yl)-1H-pyrazol-3-yl)-3-(difluoromethoxy)pyridin-2-amine] was tested, and the Ki was 0.7 nM. Compound `CC(C)n1nc(-c2cnc(N)c(OC(F)F)c2)cc1[C@H]1[C@@H]2C[C@@H](Cl)C[C@@H]21` [compound 236, 5-(5-((1R,3s,5S,6r)-3-chlorobicyclo [3.1.0]hexan-6-yl)-1-isopropyl-1H-pyrazol-3-yl)-3-(difluoro-methoxy)pyridin-2-amine] has a Ki of 15.8 nM. In the case of `CC(C)n1nc(-c2cnc(N)c(C(F)(F)F)c2)cc1[C@H]1[C@@H]2C[C@@H](N(C)C)C[C@@H]21` [compound 189, 5-(5-((1R,3s,5S,6r)-3-(dimethylamino)bicyclo[3.1.0]hexan-6-yl)-1-isopropyl-1H-pyrazol-3-yl)-3-(trifluoromethyl)pyridin-2-amine], the Ki is reported as 2.9 nM. `CC(C)n1nc(-c2cnc(N)c(C(F)(F)F)c2)cc1[C@H]1[C@@H]2C[C@H](N3CC(F)C3)C[C@@H]21` [compound 36, 5-(5-((1R,3r,5S,6r)-3-(3-fluoro-azetidin-1-yl)bicyclo[3.1.0]hexan-6-yl)-1-isopropyl-1H-pyrazol-3-yl)-3-(trifluoromethyl)pyridin-2-amine] gave a Ki of 1.53 nM. `Nc1ncc(-c2cc([C@H]3[C@@H]4C[C@@H](N5CCCOCC5)C[C@@H]43)n(CC(F)F)n2)cc1OC(F)(F)F` [compound 243, 5-(5-((1R,3s,5S,6r)-3-(1,4-oxazepan-4-yl)bicyclo[3.1.0]hexan-6-yl)-1-(2,2-difluoroethyl)-1H-pyrazol-3-yl)-3-(trifluoromethoxy) pyridin-2-amine] showed a Ki of 1.1 nM. `CC(C)n1nc(-c2cnc(N)c(OC(F)F)c2)cc1[C@H]1[C@@H]2C[C@H](N3CC4(CCCO4)C3)C[C@@H]21` [compound 225, 5-(5-((1R,3r,5S,6r)-3-(5-oxa-2-azaspiro[3.4]octan-2-yl)bicyclo [3.1.0]hexan-6-yl)-1-isopropyl-1H-pyrazol-3-yl)-3-(difluoro-methoxy)pyridin-2-amine] gave a Ki of 4.2 nM. In the case of `Nc1ncc(-c2cc([C@H]3[C@@H]4C[C@@H](N5CCOCC5)C[C@@H]43)n(C3CCC3)n2)cc1OC(F)F` [compound 131, 5-(1-cyclobutyl-5-((1R,3s,5S,6r)-3-morpholinobicyclo[3.1.0]hexan-6-yl)-1H-pyrazol-3-yl)-3-(difluoromethoxy)pyridin-2-amine], the Ki is reported as 3.5 nM. Work on `CC(C)n1nc(-c2cnc(N)c(OC(F)F)c2)cc1[C@H]1[C@@H]2C[C@H](N3C[C@@H](F)[C@@H](F)C3)C[C@@H]21` [compound 118, 3-(difluoromethoxy)-5-(5-((1R,3r,5S,6R)-3-((3S,4R)-3,4-difluoro-pyrrolidin-1-yl)bicyclo[3.1.0]hexan-6-yl)-1-isopropyl-1H-pyrazol-3-yl)pyridin-2-amine] yielded a Ki of 3.75 nM. `CO[C@H]1CCN([C@H]2C[C@@H]3[C@H](C2)[C@H]3c2cc(-c3cnc(N)c(OC(F)F)c3)nn2C(C)C)C1` [compound 212, 3-(difluoromethoxy)-5-(1-isopropyl-5-((1R,3r,5S,6S)-3-((S)-3-methoxypyrrolidin-1-yl)bicyclo [3.1.0]hexan-6-yl)-1H-pyrazol-3-yl)pyridin-2-amine] was tested, and the Ki was 4.4 nM. With `CC(C)n1nc(-c2cnc(N)c(C(F)(F)F)c2)cc1[C@H]1[C@@H]2C[C@H](N3CCOC[C@@H]3C)C[C@@H]21` [compound 98, 5-(1-isopropyl-5-((1R,3r,5S,6S)-3-((S)-3-methylmorpholino)bicyclo[3.1.0]hexan-6-yl)-1H-pyrazol-3-yl)-3-(trifluoromethyl) pyridin-2-amine] the Ki was 4.89 nM. In the case of `COC1CCN([C@H]2C[C@@H]3[C@H](C2)[C@H]3c2cc(-c3cnc(N)c(OC(F)(F)F)c3)nn2C(C)C)CC1` [compound 248, 5-(1-isopropyl-5-((1R,3r,5S,6r)-3-(4-methoxypiperidin-1-yl)bicyclo[3.1.0]hexan-6-yl)-1H-pyrazol-3-yl)-3-(trifluoromethoxy) pyridin-2-amine], the Ki is reported as 2.8 nM. Work on `CO[C@H]1CCN([C@@H]2C[C@@H]3[C@H](C2)[C@H]3c2cc(-c3cnc(N)c(OC(F)(F)F)c3)nn2C(C)C)C1` [compound 214, 5-(1-isopropyl-5-((1R,3s,5S,6S)-3-((S)-3-methoxypyrrolidm-1-yl)bicyclo[3.1.0]hexan-6-yl)-1H-pyrazol-3-yl)-3-(trifluoromethoxy) pyridin-2-amine] yielded a Ki of 1.5 nM. Compound `CC(C)n1nc(-c2cnc(N)c(OC(F)(F)F)c2)cc1[C@H]1[C@@H]2C[C@H](N3CC(F)C3)C[C@@H]21` [compound 29, 5-(5-((1R,3r,5S,6r)-3-(3-fluoro-azetidin-1-yl)bicyclo[3.1.0]hexan-6-yl)-1-isopropyl-1H-pyrazol-3-yl)-3-(trifluoromethoxy) pyridin-2-amine] has a Ki of 2.83 nM. `CC(C)n1nc(-c2cnc3cnn([C@H](C)c4ccccn4)c3c2)cc1[C@H]1[C@@H]2C[C@@H](N3CCOCC3)C[C@@H]21` [compound 31, 4-((1R,3S,5S,6r)-6-(1-isopropyl-3-(1-((R)-1-(pyridin-2-yl)ethyl)-1H-pyrazolo[4,3-b]pyridin-6-yl)-1H-pyrazol-5-yl)bicyclo[3.1.0]hexan-3-yl)morpholine] was tested, and the Ki was 79.4 nM. `CC(C)n1nc(-c2cnc(N)c(C(F)(F)F)c2)cc1[C@H]1[C@@H]2C[C@@H](N3CCN(C)C4(COC4)C3)C[C@@H]21` [compound 180, 5-(1-isopropyl-5-((1R,3s,5S,6r)-3-(5-methyl-2-oxa-5,8-diazaspiro [3.5]nonan-8-yl)bicyclo[3.1.0]hexan-6-yl)-1H-pyrazol-3-yl)-3-(trifluoromethyl)pyridin-2-amine] was tested, and the Ki was 5.8 nM. With `CC(C)n1nc(-c2cnc(N)c(OC(F)F)c2)cc1[C@H]1[C@@H]2C[C@H](OC3COC3)C[C@@H]21` [compound 230, 3-(difluoromethoxy)-5-(1-iso-oprpyl-5-((1R,3r,5S,6r)-3-(oxetan-3-yloxy)bicyclo[3.1.0]hexan-6-yl)-1H-pyrazol-3-yl)pyridin-2-amine] the Ki was 3.4 nM. For `CC(C)n1nc(-c2cnc(N)c(OC(F)(F)F)c2)cc1[C@H]1[C@@H]2C[C@@H](N3CCN(C)C[C@@H]3C)C[C@@H]21` [compound 237, 5-(5-((1R,3s,5S,6S)-3-((S)-2,4-dimethylpiperazin-1-yl)bicyclo [3.1.0]hexan-6-yl)-1-isopropyl-1H-pyrazol-3-yl)-3-(trifluoro-methoxy)pyridin-2-amine], the Ki was 1.1 nM. `CC(C)n1nc(-c2cnc(N)c(C(F)(F)F)c2)cc1[C@H]1[C@@H]2CC(N3CC4COCC4C3)C[C@@H]21` (single isomer, unassigned) [compound 277] showed a Ki of 2.3 nM. `CC(C)n1nc(-c2cnc(N)c(C(F)(F)F)c2)cc1[C@H]1[C@@H]2C[C@@H](N3CC(F)C3)C[C@@H]21` [compound 37, 5-(5-((1R,3s,5S,6r)-3-(3-fluoro-azetidin-1-yl)bicyclo[3.1.0]hexan-6-yl)-1-isopropyl-1H-pyrazol-3-yl)-3-(trifluoromethyl)pyridin-2-amine] gave a Ki of 2.37 nM.
